Data as given in PMC4644980, “The FDA-approved natural product dihydroergocristine reduces the production of the Alzheimer’s disease amyloid-β peptides” (Scientific Reports, 2015).
Counter-ions that a name gives are not always drawn. Where a SMILES comes first, the peptide text is derived from it. The star is where a group is joined. Pyrrolidide = C1CCN(*)C1

Key:
[1] = system: hAPP cleavage by γ-secretase; experiment: cleavage of APP-CTFs in HEK293 cells overexpressing hAPP; format: cell-based, human; conditions: 20 or 50 μM
[2] = biological target: T1, purified γ-secretase (Homo sapiens, UniProt P49768+Q92542); experiment: cell-free in vitro C100-Flag γ-secretase assay with purified enzyme; format: biochemical; conditions: for The potency of compound (in vitro C100 γ-secretase assay): 200 µM, compared with DHEC, estimated by densitometry; for inhibition of γ-secretase activity (C100-Flag cleavage): 200 μM; for inhibition of γ-secretase activity (C100-Flag cleavage) / IC50: purified γ-secretase; for IC50: AICD-Flag densitometry, read-out: IC50 in the in vitro γ-secretase activity assay (C100-Flag processing)
T1 construct: made in house
Description: The density of the AICD-Flag and Aβ total bands was quantified by Odyssey software (Supplementary data Fig. S5). […] The residue was then separated by Bicine/urea SDS-PAGE, together with an Aβ standard of synthetic human Aβ38, Aβ40 and Aβ42, followed by Western blot detection with anti-Aβ antibody (6E10, left panel), or quantification by ELISA (right panel). Black bars, Aβ [1–40]; gray bars, Aβ[1–42]. Data were presented as the means ± sd. […] The change in response units over time is shown. […]
γ-Secretase was purified from S-20 cells as described previously. The recombinant APP-based protein substrate of γ-secretase, namely human C100-Flag, was overexpressed in E. coli and purified by using an anti-Flag M2 resin[31]. Full length human NCT was purified as described previously (for details, see Supplementary information)[32].
Cell-free in vitro γ-secretase assays using the recombinant C100-Flag substrate and purified γ-secretase were performed as described in the Supplementary information.
Aβ1-x peptides secreted in the cell media were quantitatively measured by ELISA (IBL, Gunma, Japan) according to the standard protocol from the manufacturer. Aβ40 and Aβ42 generated in the C100-Flag γ-secretase assays stopped with 0.5% SDS (final concentration) were quantified with the human Beta Amyloid or [1–42] colorimetric ELISA kit, respectively. […]
γ-Secretase activity assays
γ-Secretase purified from S-20 cells was solubilized in 0.2% (w/v) CHAPSO in 50 mM HEPES buffer (pH 7.0) containing of 150 mM NaCl, 5 mM MgCl2 and 5 mM CaCl2, and incubated with 0.1% (w/v) PC and 1 μM or otherwise indicated […]
concentrations of substrate at 37 °C for 4 h, after which the enzymatic reactions were stopped by adding 0.5% SDS (final concentration). The samples were analyzed by Western Blot for AICD-Flag or Aβ. […]

| SMILES | cleavage of APP-CTFs / accumulation of APP-CTFs [1] | The potency of compound (in vitro C100 γ-secretase assay) [2] | inhibition of γ-secretase activity (C100-Flag cleavage) [2] | IC50 [2] [µM] |
| --- | --- | --- | --- | --- |
| CC(C)C[C@H]1C(=O)N2CCC[C@H]2[C@]2(O)O[C@](NC(=O)[C@@H]3C=C4c5cccc6[nH]c(Br)c(c56)C[C@H]4N(C)C3)(C(C)C)C(=O)N12 [2-Bromo-α-ergocryptine, 2-bromo-α-ergocryptine methanesulfonate salt] | inactive | +++ | retained the ability to inhibit | ~50 |
| CC(=O)N[C@H](C(=O)N[C@@H](Cc1ccccc1)C(=O)N1CCCC1)C(C)C [AMBE] (Ac-Val-Phe-Pyrrolidide) |  | - | did not show any inhibitory activity |  |
| CC(C)C[C@H]1C(=O)N2CCC[C@H]2[C@]2(O)O[C@](NC(=O)OCc3ccccc3)(C(C)C)C(=O)N12 [CABA, [2R-(2α, 5α, 10aβ, 10bα)]-[Octahydro-10b-hydroxy-2-(1-methylethyl)-5-(2-methylpropyl)-3,6-dioxo-8H-oxazolo[3,2-a]pyrrolo[2,1-c]pyrazin-2-yl]-carbamic acid] | accumulation of APP-CTFs only when administered at a concentration of 50 μM |  |  | ~100 |
| CN1C[C@H](C(=O)N[C@]2(C)O[C@@]3(O)[C@@H]4CCCN4C(=O)[C@H](Cc4ccccc4)N3C2=O)C[C@@H]2c3cccc4[nH]cc(c34)C[C@H]21 [Dihydro-ergotamine (DHE), dihydroergotamine methanesulfonate salt] |  | - | did not inhibit |  |
| CN1C[C@H](C(=O)N[C@]2(C)O[C@@]3(O)[C@@H]4CCCN4C(=O)[C@H](Cc4ccccc4)N3C2=O)C=C2c3cccc4[nH]cc(c34)C[C@H]21 [Ergotamine, ergotamine tartrate] |  | - | did not inhibit |  |
| CN1C[C@H](CNC(=O)OCc2ccccc2)C[C@@H]2c3cccc4c3c(cn4C)C[C@H]21 [Metergoline, metergoline] |  | - | did not inhibit |  |
| CC[C@@H](CO)NC(=O)[C@@H]1C=C2c3cccc4[nH]cc(c34)C[C@H]2N(C)C1 [Methyl-ergometrine, methylergometrine] |  | - | did not inhibit |  |
| CCCN1C[C@H](CSC)C[C@@H]2c3cccc4[nH]cc(c34)C[C@H]21 [Pergolide, pergolide mesylate salt] |  | - | did not inhibit |  |
| CC(C)C[C@H]1C(=O)N2CCC[C@H]2[C@]2(O)O[C@](NC(=O)[C@@H]3C=C4c5cccc6[nH]cc(c56)C[C@H]4N(C)C3)(C(C)C)C(=O)N12 [α-Ergocryptine, α-ergocryptine] |  | +++ | inhibited |  |
| CCC(C)[C@H]1C(=O)N2CCC[C@H]2[C@]2(O)O[C@](NC(=O)[C@@H]3C[C@@H]4c5cccc6[nH]cc(c56)C[C@H]4N(C)C3)(C(C)C)C(=O)N12 (stereo partly drawn) [β-Dihydro-ergocryptine, β-Dihydroergocryptine] |  | + | inhibited |  |
